Laboratory results from patent US6599943B1, “Use of hydroxyguanidines” (WaPharm AB, priority 1996, dated 2003).

How the values were obtained:
[1] = system: rat spleen cytosol; assay: Hydroxyguanidine reducing activity of spleen cytosol by radioligand binding assay; format: biochemical; conditions: 70 μM guanoxabenz, 1 hr at 25° C.
Experimental: (§1) Assay of hydroxyguanidine reducing activity by radioligand binding. The assay is based on the possibility to measure the affinity of ligands to α2-adrenoceptors by using radioligand binding. In a typical experiment small aliquots of the sample to be measured is added to an assay containing membranes rich in α2-adrenoceptors as well as a suitable concentration of a radioligand capable of binding to α2-adrenoceptors. After the assay mixture has been incubated for a suitable time, to achieve equilibrium, the amount of radioligand bound to the membranes is measured by washing and filtering on GF/C glass fibre filters using methods that are well described in literature, and which are commonly referred to as radioligand binding. The ability of the hydroxyguanidine and its product to inhibit the binding of the radioligand to the α2-adrenoceptor constituted a measure of the hydroxyguanidine/guanidine activity of the reaction mixture. A preferred hydroxyguanidine is one which corresponding guanidine show substantially different affinity compared to the hydroxyguanidine itself. A most preferred example of such a hydroxyguanidine is guanoxabenz.
(§2) In a more more exact version of the assay the “apparent affinity” of the mixture of hydroxyguanidine and guanidine-product is measured by constructing a complete competition curve for each sample to be measured. This is achieved by adding different dilutions of the reaction mixture to the radioligand binding assay. Since the sum of the concentration of the hydroxyguanidine and the guanidine product is known, the “apparent affinity” of the mixture can be calculated from the radioligand binding data using standard procedures for radioligand binding data analysis (Uhlén and Wikberg,1991). For the purpose of the present studies the apparent affinity of the reaction mixture was estimated from competition data by using a radioligand binding analysis computer software package (Wan System AB, Trillvägen 13, S-905 92 Umeå, Sweden). The fraction (q) of guanidine product obtained is then given by: [formula] […]

[2] = target: T1, bovine milk xanthine oxidase (Bos taurus, UniProt P80457); assay: Oxidation of xanthine to uric acid by xanthine oxidase in absence and presence of oxygen, spectrophotometric; format: biochemical; parameters: host or cells: bovine milk; conditions: 50 μM guanoxabenz, 50 μM xanthine; both in the absence of oxygen (nitrogen) and in the presence of 20% oxygen
Experimental: Capacity of hydroxyguanidines to sustain oxidation of xanthine by xanthine oxidase in the absence and in the presence of oxygen. The capacity of hydroxyguanidines to sustain the oxidation of xanthine to uric acid in the absence and presence of oxygen was assayed by using a spectrophotometric method. In this method bovine milk xanthine oxidase was injected to a Helma® sealable cuvette for anaerobic applications thereby creating 1 ml of a reaction mixture that contained reagents as follows: 50 μM of a hydroxyguanidine, 50 μM xanthine, 0.05 units/ml bovine milk xanthine oxidase, 50 mM Tris and 1.5 mM EDTA; the pH of the reaction mixture being 7.5, and the temperature being 20° C. Anaerobic conditions were assured by pre-gassing all solutions used for 5-10 min, with nitrogen whereas aerobic conditions was assured by exposing the solutions to air. The rate of formation of uric acid was monitored spectrophotometrically by measuring the increase in absorbance at 295 nm (the absorption maximum for uric acid) at timed intervals. In FIG. 5 are shown examplary recordings from these tests. In this test the hydroxyguanidine was guanoxabenz.
Target sequence in this assay (P80457 whole entry): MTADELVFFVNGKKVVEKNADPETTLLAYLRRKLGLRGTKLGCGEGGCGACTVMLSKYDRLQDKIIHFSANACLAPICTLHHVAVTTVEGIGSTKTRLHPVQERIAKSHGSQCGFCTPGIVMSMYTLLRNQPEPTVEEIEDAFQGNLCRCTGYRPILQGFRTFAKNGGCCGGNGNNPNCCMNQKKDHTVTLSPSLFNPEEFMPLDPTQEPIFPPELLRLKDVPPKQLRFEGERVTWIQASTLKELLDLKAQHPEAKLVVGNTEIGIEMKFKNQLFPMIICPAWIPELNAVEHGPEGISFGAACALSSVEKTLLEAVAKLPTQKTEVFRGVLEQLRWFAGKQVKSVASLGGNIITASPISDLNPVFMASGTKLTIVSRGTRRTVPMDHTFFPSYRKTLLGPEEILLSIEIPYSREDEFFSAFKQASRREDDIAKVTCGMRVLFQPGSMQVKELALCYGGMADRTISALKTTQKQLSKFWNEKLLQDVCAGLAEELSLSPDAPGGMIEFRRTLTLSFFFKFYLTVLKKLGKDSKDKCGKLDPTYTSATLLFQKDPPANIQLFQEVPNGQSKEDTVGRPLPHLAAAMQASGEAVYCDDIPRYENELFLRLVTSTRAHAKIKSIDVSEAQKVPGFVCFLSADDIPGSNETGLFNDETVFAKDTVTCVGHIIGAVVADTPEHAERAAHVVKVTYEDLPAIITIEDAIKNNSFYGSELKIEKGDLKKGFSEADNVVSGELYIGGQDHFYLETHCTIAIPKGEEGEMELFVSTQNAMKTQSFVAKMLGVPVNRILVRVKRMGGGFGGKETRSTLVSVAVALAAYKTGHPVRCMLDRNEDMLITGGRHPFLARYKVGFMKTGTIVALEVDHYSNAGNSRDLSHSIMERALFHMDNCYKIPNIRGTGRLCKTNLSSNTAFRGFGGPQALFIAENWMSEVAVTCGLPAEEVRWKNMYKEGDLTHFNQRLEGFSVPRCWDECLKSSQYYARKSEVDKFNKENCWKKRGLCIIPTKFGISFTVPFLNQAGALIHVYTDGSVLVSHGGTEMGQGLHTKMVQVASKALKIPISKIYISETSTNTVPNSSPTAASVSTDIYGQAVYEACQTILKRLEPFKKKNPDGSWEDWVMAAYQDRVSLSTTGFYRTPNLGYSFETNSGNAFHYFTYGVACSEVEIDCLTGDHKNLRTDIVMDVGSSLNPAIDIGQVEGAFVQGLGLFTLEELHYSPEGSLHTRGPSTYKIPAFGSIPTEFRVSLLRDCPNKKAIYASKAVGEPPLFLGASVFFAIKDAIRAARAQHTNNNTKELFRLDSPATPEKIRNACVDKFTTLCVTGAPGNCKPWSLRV

[3] = system: rat heart cytosol; assay: Hydroxyguanidine reducing activity of heart cytosol by radioligand binding assay; format: biochemical; conditions: 70 μM guanoxabenz, 1 hr at 25° C.
Experimental: as §1, §2

[4] = system: bovine milk xanthine oxidase; assay: Hydroxyguanidine reducing activity of bovine xanthine oxidase, simplified radioligand binding assay; format: biochemical
Experimental: (§3) In a simplified form of the assay the α2-adrenoceptor containing membranes and the [^3H]RX821002 radioligand were added together with the hydroxyguanidine reducing activity and the hydroxyguanidine, and the mixture then incubated for a suitable time. In this implementation of the assay the reduction of the hydroxyguanidine occurred simultaneously with the assay of the […]. Example of this variant of the assay is given in Examples 4 and 8.
(§4) Hydroxyguanidine reducing activity of bovine xanthine oxidase.

[5] = target: T1, bovine milk xanthine oxidase; assay: as above; format: biochemical; conditions: 100 μM xanthine versus xanthine absent
Experimental: as §3, §4
Target sequence in this assay (P80457 2-1332): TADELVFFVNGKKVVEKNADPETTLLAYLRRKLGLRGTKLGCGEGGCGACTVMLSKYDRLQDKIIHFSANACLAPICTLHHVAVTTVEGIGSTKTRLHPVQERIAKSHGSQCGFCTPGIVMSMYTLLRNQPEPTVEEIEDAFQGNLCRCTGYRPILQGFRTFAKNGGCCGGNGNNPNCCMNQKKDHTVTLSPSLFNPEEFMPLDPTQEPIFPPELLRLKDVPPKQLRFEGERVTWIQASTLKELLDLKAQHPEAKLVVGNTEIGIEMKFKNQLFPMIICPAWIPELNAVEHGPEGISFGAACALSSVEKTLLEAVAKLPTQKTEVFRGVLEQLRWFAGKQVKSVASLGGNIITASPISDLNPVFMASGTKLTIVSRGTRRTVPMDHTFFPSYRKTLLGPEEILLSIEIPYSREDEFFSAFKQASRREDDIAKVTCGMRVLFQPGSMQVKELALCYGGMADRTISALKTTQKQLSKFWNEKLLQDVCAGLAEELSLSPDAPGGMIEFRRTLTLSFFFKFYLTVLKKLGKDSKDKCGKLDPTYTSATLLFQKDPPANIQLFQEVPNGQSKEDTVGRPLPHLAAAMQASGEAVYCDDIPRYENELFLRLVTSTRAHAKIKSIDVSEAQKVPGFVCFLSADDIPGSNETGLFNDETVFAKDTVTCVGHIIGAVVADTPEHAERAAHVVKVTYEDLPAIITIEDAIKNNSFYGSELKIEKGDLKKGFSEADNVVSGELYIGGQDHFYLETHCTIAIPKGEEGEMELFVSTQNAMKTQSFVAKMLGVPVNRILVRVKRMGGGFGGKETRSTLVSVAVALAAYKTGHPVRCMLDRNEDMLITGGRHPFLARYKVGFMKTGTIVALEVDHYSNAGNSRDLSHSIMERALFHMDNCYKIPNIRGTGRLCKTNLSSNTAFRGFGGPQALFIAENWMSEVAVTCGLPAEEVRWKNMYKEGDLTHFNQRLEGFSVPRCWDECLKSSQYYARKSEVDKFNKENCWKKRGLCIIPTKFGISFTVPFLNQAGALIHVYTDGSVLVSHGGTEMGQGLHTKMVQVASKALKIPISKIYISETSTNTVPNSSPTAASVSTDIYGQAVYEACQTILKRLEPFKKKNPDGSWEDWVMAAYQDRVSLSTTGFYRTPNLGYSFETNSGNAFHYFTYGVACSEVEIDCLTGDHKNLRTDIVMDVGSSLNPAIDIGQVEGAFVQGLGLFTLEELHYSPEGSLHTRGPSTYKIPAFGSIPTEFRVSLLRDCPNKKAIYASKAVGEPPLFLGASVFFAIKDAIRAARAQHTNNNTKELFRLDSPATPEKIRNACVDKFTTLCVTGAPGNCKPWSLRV

[6] = target: xanthine oxidase (Bos taurus, UniProt P80457); assay: Inhibition of superoxide radical formation by xanthine oxidase, EPR with DMPO; format: biochemical; conditions: 100 μM guanoxabenz, 100 μM xanthine, 0.04 units/ml xanthine oxidase, 50 μM DMPO
Sequence of xanthine oxidase (P80457 whole entry): as the sequence (P80457 whole entry) above
Experimental: Capacity of hydroxyguanidines to inhibit the formation of superoxide radicals by xanthine oxidase in the presence of oxygen. The detection of the spin adducts of superoxide formed by xanthine oxidase and xanthine reaction was performed by using a Bruker ER200D-SRC EPR spectrometer equipped with an ER4105ST double cavity and the spin trap agent DMPO, by essentially using the approach described by Britigan et al. (1990). In brief, reaction mixtures of total volumes of 0.5 ml were prepared by adding to a plastic tubes, in the listed order, reagents that gave final concentrations as follows: 50 mM Tris HCl, 1.5 mM EDTA, 100 μM xanthine, 100 μM guanoxabenz, 0.04 units/ml xanthine oxidase and 50 μM DMPO, pH 7.5. As a control served an identical reaction mixture except that guanoxabenz had been omitted. The solutions were immediately transferred to standard flat cells for aqueous samples and spectra were recorded at room temperature. Spectrometer settings were as follows: microwave power 3.99 mW; modulation amplitude 1.028 G; time constant 10.24 ms; modulation frequency 100 kHz; receiver gain, 5×10^4. In FIG. 6 is shown an exemplary recording from these tests. […] This additional signal was due to a contaminant corresponding to “nitric oxide” that was released from the disposable laboratory plastic used in the preparation of the samples (see Buettner et al., 1991).

[7] = target: T1, bovine milk xanthine oxidase
Target sequence in this assay (P80457 2-1332): as the sequence (P80457 2-1332) above
Experimental: Capacity of allopurinol to inhibit the reduction of hydroxyguanidines by xanthine oxidase. […] In these tests varying amounts of guanoxabenz was added to assays yielding 150 μl final volumes and containing final concentrations 0.004 units/ml of bovine milk xanthine oxidase (Sigma, St. Louis, MO., USA), 100 μM xanthine, 20 μM allopurinol, 50 pM α2-adrenoceptors (in HT29 cell membranes), 33 mM Tris HCl, 1 mM EDTA, pH 7.5, and incubating for 1 hour at 25° C.

## N=C(NO)NN=Cc1c(Cl)cccc1Cl [Guanoxabenz, 2(2,6-dichlorophenyl)methylene-N-hydroxyhydrazine carboxi-imidamide]
[1]
  concentration of guanabenz in the sample: 17.5 µM
  conversion of guanoxabenz to guanabenz: 25%
  q (fraction of guanidine product): 0.25
[2]
  rate of the formation of uric acid (absorbance at 295 nm): substantial increase
[3]
  concentration of guanabenz in the sample: 6.3 µM
  conversion of guanoxabenz to guanabenz: 9%
  q (fraction of guanidine product): 0.09
[4]; in the absence of xanthine
  guanoxabenz converted to guanabenz: none
[4]; in the presence of xanthine
  conversion of guanoxabenz to guanabenz: about 88%
[5]
  increase in the apparent affinity on addition of xanthine: about 40 fold
[6]
  reduction of the superoxide signal (EPR): about 60%
[7]; in the absence of allopurinol
  conversion of guanoxabenz to guanabenz: about 88%
[7]; in the presence of allopurinol (20 μM)
  guanoxabenz converted to guanabenz: none
